The source of these data is patent publication US12583868B2, “JAK inhibitors and methods for synthesizing and using thereof” (GALDERMA HOLDING SA, priority 2020, dated 2026).

The nature of series [1]: Intrinsic clearance in hepatocytes, minipig. The following applies: 2.5 μM. The series is classed as in vitro ADME, male Göttingen minipig. How it is done: (§1) The intrinsic clearance was assessed in cryopreserved Hepatocytes obtained by Human livers donors of mix gender pooled together, male balb-c mouse, male Wistar Han rats and male Göttingen minipig, by looking at the parent compound disappearance. The incubations were performed using a final concentration of viable cells of 1 million/ml (viability above 70%) and test item of 2.5 μM. Incubations were followed up to 2 h. Aliquotes were withdrawn at different time points and reaction quenched with acetonitrile. After centrifugation the supernatant was analyzed by HPLC/MS to quantify the remaining amount of parent in comparison with time 0. The clearance was calculated by fitting the log of the percentage remaining with Graphpad Prism ver.7.

Series [2] in a line: Protein binding analysis (RED), rat plasma. The settings on record: 5 μM. The series is classed as in vitro ADME, male Wistar Han rat. How it is done:
The protein binding was assessed in plasma of Human, male balb-c mice, male Wistar Han rat, male Göttingen minipig by rapid equilibrium dialysis (RED) devices. After the plasma and buffer phosphate 50 mM pH7.4 were equilibrated at 37° C., the compound was added to plasma to reach a final concentration of 5 μM. An aliquot of plasma was withdrawn immediately. Equilibration under mild agitation was continued for 4 h. The plasma and buffer were sampled and samples were quenched with 4 volumes of acetonitrile and centrifuged. Supernatant was quantified in HPLC/MS/MS to calculate the recovery and the percentage of compound dissolved in the buffer (unbound) and bound to plasma proteins.

A short description of series [3]: Systemic level in PD/IL6 mouse topical dose response. The settings on record: topical 10 mM. The series is classed as in vivo, BALB/c ByJ Rj mice. How it is done:
Skin samples were harvested 15 min.

Series [4] in a line: Intrinsic clearance in hepatocytes, mouse. The series is classed as in vitro ADME, male balb-c mouse. The settings on record: 2.5 μM. The method, then:
as §1

The target in series [5] is T1, Recombinant JAK1 (Homo sapiens, UniProt P23458).
T1 construct: purchased Life Technologies PV4775
Nature of the series: In vitro enzyme assay (Cisbio kinase assay), JAK1. The following applies: ATP 300 μM; read-out: Enzymatic assay: IC50 JAK1. The series is classed as biochemical.

Series [6] is described as follows: Human skin ex vivo: flux through skin and dermis concentration (Franz cells). In kind it is in vitro ADME. The following applies: PG/H2O cream 1 mg/mL, human skin.
Series [7] can be described thus: Chrom logD pH 7.4. In kind it is physicochemical.
The subject of series [8] is IL6. Nature of the series: hWB assay, IL6. The series is classed as cell-based, h.
For series [9], the target named is T2, CYP2D6 (Homo sapiens, UniProt P10635).
T2 construct: Human pooled liver microsomes of mixed gender (mainly Caucasian); from tissue; host or cells: pooled human liver microsomes
Description: CYP2D6 inhibition in human liver microsomes. The series is classed as in vitro ADME. The settings on record: dextromethorphan, CRL data. The method, then: After 5 min at 37° C. incubations were started with NADPH and prolonged for 10 min. The test compound was tested up to 30 μM keeping the final concentration of organic solvent was below 0.5%. The final concentration of microsomes was 0.1 mg/ml to ensure linearity during the time of the incubation. The reaction was quenched by adding 3 volume of acetonitrile. After centrifugation the supernatant was analyzed by HPLC/MS/MS for the formation of des-methyldextromethorphane selectively produced by CYP2D6 and 1′hydroxymidazolam or 6p-hydroxytestosterone, selectively produced by CYP3A. IC50 was calculated with Graphpad Prism v.7 comparing the amount of metabolite produced in presence of the test compound with that produced in absence of test item.
(Liver microsomes are vesicles of endoplasmic reticulum, rich in cytochrome P450 enzymes.)

pIC50: −log10 of the molar value.

T1 sequence (P23458 whole entry): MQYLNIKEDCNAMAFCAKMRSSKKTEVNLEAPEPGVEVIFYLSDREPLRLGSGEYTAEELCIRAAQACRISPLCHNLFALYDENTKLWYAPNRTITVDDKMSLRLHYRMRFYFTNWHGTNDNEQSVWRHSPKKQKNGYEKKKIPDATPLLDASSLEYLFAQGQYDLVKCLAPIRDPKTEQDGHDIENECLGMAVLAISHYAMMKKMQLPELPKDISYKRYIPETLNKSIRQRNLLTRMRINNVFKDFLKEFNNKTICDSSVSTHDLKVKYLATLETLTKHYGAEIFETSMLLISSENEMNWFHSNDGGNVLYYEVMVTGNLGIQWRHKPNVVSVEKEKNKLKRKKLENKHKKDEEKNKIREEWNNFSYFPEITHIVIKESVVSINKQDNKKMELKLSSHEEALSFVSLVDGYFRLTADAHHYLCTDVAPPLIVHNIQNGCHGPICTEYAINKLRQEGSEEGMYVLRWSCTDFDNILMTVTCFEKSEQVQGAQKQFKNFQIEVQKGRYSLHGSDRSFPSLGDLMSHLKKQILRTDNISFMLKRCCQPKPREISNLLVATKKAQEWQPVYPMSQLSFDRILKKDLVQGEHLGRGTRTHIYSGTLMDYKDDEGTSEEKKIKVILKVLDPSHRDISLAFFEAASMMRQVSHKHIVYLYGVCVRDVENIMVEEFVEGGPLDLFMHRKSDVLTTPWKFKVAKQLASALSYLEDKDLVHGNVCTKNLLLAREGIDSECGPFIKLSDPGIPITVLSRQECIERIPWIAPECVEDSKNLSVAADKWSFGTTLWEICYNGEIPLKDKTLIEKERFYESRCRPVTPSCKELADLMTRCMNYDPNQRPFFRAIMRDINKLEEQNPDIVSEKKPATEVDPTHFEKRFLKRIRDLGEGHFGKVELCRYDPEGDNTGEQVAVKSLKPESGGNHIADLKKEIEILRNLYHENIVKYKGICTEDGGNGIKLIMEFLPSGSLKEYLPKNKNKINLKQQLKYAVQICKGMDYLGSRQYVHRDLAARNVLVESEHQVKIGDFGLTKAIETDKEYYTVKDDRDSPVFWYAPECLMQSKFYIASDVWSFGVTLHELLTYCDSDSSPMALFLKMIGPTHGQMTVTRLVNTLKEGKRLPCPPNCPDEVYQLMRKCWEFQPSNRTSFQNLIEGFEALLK
T2 sequence (P10635 whole entry): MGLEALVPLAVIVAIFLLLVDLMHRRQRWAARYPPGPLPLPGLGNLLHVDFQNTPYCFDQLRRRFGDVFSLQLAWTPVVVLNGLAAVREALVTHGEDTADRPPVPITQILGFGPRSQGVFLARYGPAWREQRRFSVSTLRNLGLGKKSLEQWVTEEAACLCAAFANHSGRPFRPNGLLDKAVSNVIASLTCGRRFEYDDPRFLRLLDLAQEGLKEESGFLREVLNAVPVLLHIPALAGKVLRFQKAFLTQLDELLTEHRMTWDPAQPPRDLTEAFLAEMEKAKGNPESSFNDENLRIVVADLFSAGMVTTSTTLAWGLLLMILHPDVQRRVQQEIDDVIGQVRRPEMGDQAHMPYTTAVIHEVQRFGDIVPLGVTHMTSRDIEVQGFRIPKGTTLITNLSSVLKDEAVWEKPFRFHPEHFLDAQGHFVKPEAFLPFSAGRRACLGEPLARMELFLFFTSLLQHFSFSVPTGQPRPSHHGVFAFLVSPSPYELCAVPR

The pIC50 is the IC50 on a negative log10 scale, so that one unit is a factor of ten. The chromatographic logD is lipophilicity estimated from chromatographic retention. Read a low chromatographic logD as a more hydrophilic compound. As for `O=S(=O)(N[C@H]1C[C@@H](N2CCOc3cnc4[nH]ccc4c32)C1)C1CN(C2CC2)C1` [Compound E, 1-Cyclopropyl-N-((cis)-3-(2,3-dihydropyrrolo[3′,2′:5,6]pyrido[3,4-b][1,4]oxazin-1(7H)-yl)cyclobutyl)azetidine-3-sulfonamide], the “Intr. Clear. minipig heps” value in [1] is given as 44 microL/min/10 6 cells. The same compound showed a rFU in series [2] of 16%. For the same compound, in series [3], the “PD/IL6 mouse top DR 0.01-10 mM (PG/Acetone/Transcutol): Systemic level @10 mM - 2 hrs” value is recorded as 185 nM. Also, the “Intr. Clear. mheps” value in [4] came out at 28 microL/min/10 6 cells. The values for the negative-log IC50 (pIC50) in series [5], in series [8] and in series [9] were 8.05, 5.80 and 4.70, respectively. The compound further showed a dermis concentration in series [6] of 2.2 µM. Moreover, in [6], the “measured flux 6-24 hr” value was below 0.24 ng/cm^2/hr. Moreover, the chromatographic logD in series [7] was determined as 0.8.
